Laboratory results from the NIST ThermoML archive (doi:10.1021/acs.jced.8b00202).

Settings: Liquid, Frequency=8 MHz, Dual path-length method

CC(C)C [2-methylpropane]
Settings	speed of sound [m/s]
199.99 K, 409.39 kPa	1393.6
199.99 K, 599.71 kPa	1394.9
199.99 K, 1103.6 kPa	1398.1
199.99 K, 2104.3 kPa	1404.5
199.99 K, 3104.9 kPa	1410.8
199.99 K, 4105.7 kPa	1417.1
199.99 K, 5106.3 kPa	1423.3
199.99 K, 6107 kPa	1429.4
199.99 K, 7107.8 kPa	1435.5
199.99 K, 8108.5 kPa	1441.5
199.99 K, 9109.1 kPa	1447.5
199.99 K, 10110 kPa	1453.4
199.99 K, 12612 kPa	1467.8
199.99 K, 15113 kPa	1482
199.99 K, 17615 kPa	1495.8
199.99 K, 20117 kPa	1509.3
199.99 K, 25120 kPa	1535.6
199.99 K, 30124 kPa	1560.8
199.99 K, 35128 kPa	1585.2
199.99 K, 40131 kPa	1608.7
199.99 K, 45134 kPa	1631.5
199.99 K, 50138 kPa	1653.5
199.99 K, 60145 kPa	1695.8
199.99 K, 70152 kPa	1735.8
199.99 K, 80158 kPa	1773.8
200 K, 90166 kPa	1810.1
200 K, 100173 kPa	1844.9
220 K, 1103.2 kPa	1276.9
220 K, 2103.8 kPa	1284.3
220 K, 3102.9 kPa	1291.5
220 K, 3104.4 kPa	1291.5
220 K, 4105.1 kPa	1298.6
220 K, 5105.2 kPa	1305.7
220 K, 6106 kPa	1312.7
220 K, 7106.6 kPa	1319.5
220 K, 8107.3 kPa	1326.3
220 K, 9108 kPa	1333
220 K, 10109 kPa	1339.7
220 K, 10110 kPa	1339.7
220 K, 12610 kPa	1356
220 K, 15112 kPa	1371.8
220 K, 17614 kPa	1387.2
220 K, 20116 kPa	1402.2
220 K, 20117 kPa	1402.2
220 K, 25119 kPa	1431.2
220 K, 30123 kPa	1459
220 K, 30124 kPa	1459
220 K, 35126 kPa	1485.6
220 K, 40130 kPa	1511.2
220 K, 40131 kPa	1511.2
220 K, 45134 kPa	1535.8
220 K, 50137 kPa	1559.7
220 K, 60144 kPa	1605.2
220 K, 70151 kPa	1648
220 K, 80158 kPa	1688.5
220 K, 90165 kPa	1727
220 K, 100172 kPa	1763.8
240 K, 402.14 kPa	1153
240 K, 402.77 kPa	1153
240 K, 602.82 kPa	1154.8
240 K, 1103.6 kPa	1159
240 K, 2103.9 kPa	1167.5
240 K, 2104.3 kPa	1167.5
240 K, 3104.9 kPa	1175.8
240 K, 4105.7 kPa	1184
240 K, 5106.3 kPa	1192.1
240 K, 6107.2 kPa	1200
240 K, 7108 kPa	1207.8
240 K, 8108.1 kPa	1215.5
240 K, 8109.3 kPa	1215.5
240 K, 9110.1 kPa	1223.1
240 K, 10111 kPa	1230.6
240 K, 12613 kPa	1248.8
240 K, 15113 kPa	1266.5
240 K, 15114 kPa	1266.5
240 K, 17616 kPa	1283.7
240 K, 20118 kPa	1300.3
240 K, 25121 kPa	1332.3
240 K, 30124 kPa	1362.6
240 K, 30125 kPa	1362.6
240 K, 35128 kPa	1391.6
240 K, 40132 kPa	1419.3
240 K, 45135 kPa	1445.9
240 K, 50139 kPa	1471.5
240 K, 60146 kPa	1520.1
240 K, 70153 kPa	1565.7
240 K, 80160 kPa	1608.6
240 K, 90167 kPa	1649.3
240 K, 100174 kPa	1688
259.99 K, 8108.1 kPa	1108.7
259.99 K, 15113 kPa	1166
259.99 K, 30123 kPa	1271.7
260 K, 402.73 kPa	1036.8
260 K, 405.47 kPa	1036.7
260 K, 607.87 kPa	1038.8
260 K, 1106.4 kPa	1043.8
260 K, 2104 kPa	1053.6
260 K, 2107.1 kPa	1053.6
260 K, 3107.8 kPa	1063.2
260 K, 4108.4 kPa	1072.7
260 K, 5109.1 kPa	1081.9
260 K, 6109.7 kPa	1091
260 K, 7111 kPa	1099.9
260 K, 8111.7 kPa	1108.6
260 K, 9112.4 kPa	1117.2
260 K, 10113 kPa	1125.7
260 K, 12615 kPa	1146.2
260 K, 15116 kPa	1166
260 K, 17618 kPa	1185
260 K, 20120 kPa	1203.5
260 K, 25123 kPa	1238.6
260 K, 30127 kPa	1271.7
260 K, 35130 kPa	1303.1
260 K, 40134 kPa	1333
260 K, 45137 kPa	1361.5
260 K, 50140 kPa	1388.9
260 K, 60147 kPa	1440.6
260 K, 70154 kPa	1488.7
260 K, 80161 kPa	1533.9
260 K, 90168 kPa	1576.6
260 K, 100175 kPa	1617.2
280 K, 402.43 kPa	921.86
280 K, 602.22 kPa	924.25
280 K, 606.25 kPa	924.3
280 K, 1103.2 kPa	930.19
280 K, 2103.9 kPa	941.79
280 K, 3104.4 kPa	953.08
280 K, 4105.1 kPa	964.08
280 K, 5105.7 kPa	974.8
280 K, 6106.3 kPa	985.26
280 K, 7107 kPa	995.5
280 K, 8107.9 kPa	1005.5
280 K, 9108.6 kPa	1015.3
280 K, 10109 kPa	1024.9
280 K, 12611 kPa	1048
280 K, 15113 kPa	1070.1
280 K, 17614 kPa	1091.3
280 K, 20116 kPa	1111.6
280 K, 25119 kPa	1150.1
280 K, 30123 kPa	1186.1
280 K, 35126 kPa	1220
280 K, 40130 kPa	1252.1
280 K, 45133 kPa	1282.6
280 K, 50137 kPa	1311.8
280 K, 60144 kPa	1366.4
280 K, 70151 kPa	1417.1
280 K, 80158 kPa	1464.6
280 K, 90164 kPa	1509.1
280 K, 100171 kPa	1551.2
299.99 K, 3104.6 kPa	844.54
300 K, 601.97 kPa	809.82
300 K, 1103.1 kPa	817.03
300 K, 1103.4 kPa	817.08
300 K, 4105.3 kPa	857.55
300 K, 5106 kPa	870.14
300 K, 5106.3 kPa	870.12
300 K, 6106.5 kPa	882.34
300 K, 7107.5 kPa	894.17
300 K, 8108.1 kPa	905.68
300 K, 9108.7 kPa	916.91
300 K, 10109 kPa	927.83
300 K, 12611 kPa	954.01
300 K, 15113 kPa	978.78
300 K, 17614 kPa	1002.3
300 K, 20116 kPa	1024.8
300 K, 25120 kPa	1066.9
300 K, 30123 kPa	1105.9
300 K, 35127 kPa	1142.4
300 K, 40131 kPa	1176.7
300 K, 45134 kPa	1209.2
